The values that follow come from paper PMC8920304, “Potent Inhibition of Human Cytochrome P450 3A4 by Biflavone Components from Ginkgo Biloba and Selaginella Tamariscina” (Frontiers in Pharmacology, 2022).

The IC50 is the concentration needed to halve the response being measured. For orientation: Ki means a measure of affinity in units of concentration, obtained from inhibition or displacement. The low end stands for higher affinity, the high end for lower affinity.

For series [1], the target named is T1, CYP3A4 (Homo sapiens, UniProt P08684).
T1 construct: The primary incubation mixture contains HLM, potassium phosphate buffer; from tissue; host or cells: human liver microsomes (HLM)
T1 sequence (P08684 whole entry): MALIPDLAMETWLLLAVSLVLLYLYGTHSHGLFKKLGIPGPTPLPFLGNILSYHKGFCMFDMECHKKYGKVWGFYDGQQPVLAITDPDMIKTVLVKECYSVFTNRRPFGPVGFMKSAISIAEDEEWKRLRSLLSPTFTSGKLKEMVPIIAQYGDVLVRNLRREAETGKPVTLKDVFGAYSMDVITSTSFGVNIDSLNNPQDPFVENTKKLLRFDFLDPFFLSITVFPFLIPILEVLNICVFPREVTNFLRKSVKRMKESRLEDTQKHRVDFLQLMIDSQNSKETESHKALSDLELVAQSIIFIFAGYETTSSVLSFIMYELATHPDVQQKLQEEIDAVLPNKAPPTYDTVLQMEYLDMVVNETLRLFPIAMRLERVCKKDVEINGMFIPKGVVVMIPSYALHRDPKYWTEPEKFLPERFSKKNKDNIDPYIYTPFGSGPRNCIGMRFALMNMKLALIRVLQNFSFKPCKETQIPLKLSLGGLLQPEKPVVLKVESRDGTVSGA
Also on record: method as in Ning et al., 2019. The note with it: HLM; ref Ning et al., 2019; cited from earlier work.

Series [2] has as its target T1, CYP3A4. In words: Inhibition of NEN 4-hydroxylation in human liver microsomes (fluorescence high-throughput screening). The note with it: HLM, NEN probe, mean ± S.D. (n = 3); read-out: IC50 against CYP3A4 (NEN 4-hydroxylation). It is filed as in vitro ADME. As to the method: The primary incubation mixture contains HLM, potassium phosphate buffer (pH 7.4, 100 mM), G-6-P (10 mM), G-6-P dehydrogenase (1 U/ml), MgCl2 (4 mM), NEN (50 µM), extracts of herbal medicine (20 µg/ml), or components. The incubation duration and HLM protein concentrations were 30 min and 0.05 mg/ml, respectively. The reaction was initiated by the addition of NADP^+ and terminated by the addition of 100 µL ice-cold acetonitrile (ACN). NEN 4-hydroxylation were utilized as the probe reaction for CYP3A4, and fluorescence image of 96-well microplates were measured by a fluorescent image analyzer (GE Amersham Typhoon, Sweden) under the excitation wavelength of 488 nm (E m: 570 ± 15 nm). The formation of NEHN was evaluated by the quantitative analysis of fluorescence signal for individual wells of microplates using the equipment supporting software. The percentage residual activity was calculated from percentage relative value of NEHN formation rate.

The target of series [3] is T1, CYP3A4. In words: Inhibition of CYP3A4-mediated oxidation of clinical drugs (tamoxifen, gefitinib, ticagrelor) in HLM, LC-MS/MS. It is filed as in vitro ADME. The conditions noted are these: 30 min, ± SD. As to the method:
Varying concentrations of DGK, GK, IGK, and AMF incubated for 30 min with gefitinib (10 μM), tamoxifen (20 μM), ticagrelor (30 μM), respectively ([Wang et al., 2020]). The ExionLC AD HPLC system consisted of an autosampler, a quaternary delivery system and a degasser. The chromatograph was equipped with a Luna Omega PS C18 (2.1 × 100 mm, 3 μm) analytical column, and the mobile phase consisted of 0.1% formic acid aqueous solution (A) and ACN (B), and were conducted with a 0.30 ml/min flow rate as follow for the gradient program: 0–1.5 min (10–10% B), 1.5–3.0 min (10–45% B), 3.0–5.0 min (45–90% B). An AB MDS Sciex QTRAP 5500 Mass Spectrometer equipped with an ESI source was used to analyze the target substances. The positive mode was used with N-demethylated tamoxifen (358.0→58.0) and defluorinated gefitinib (445.0→128.0). The relative parameters were set as follows: ion spray voltage, 5500 V; temperature, 550°C; curtain gas (CUR) flow, […]; gas1 and gas2 (nitrogen), 45 and 55 psi. The negative mode was used with dehydroxyethoxylated ticagrelor (477.2→361.1). The relative parameters were set as follows: ion spray voltage, -4500 V; temperature, 550°C; curtain gas flow, […]; gas1 and gas2, 50 and 50 psi. For other parameters, please refer to Supplementary Table S1 in the supplementary data.

Series [4] deals with T1, CYP3A4. Put plainly: Inhibition kinetic characterization with NEN 4-hydroxylation in HLM. It is filed as in vitro ADME. The note with it: for Type of inhibition: NEN 4-hydroxylation; for Ki: NEN 15-150 µM, 30 min; for ɑ (degree to which inhibitor binding influences enzyme-substrate binding): mixed-inhibition model. As to the method:
Varying concentrations of DGK, GK, IGK, and AMF incubated for 30 min with varying concentrations of NEN (15–150 µM). The high-throughput screening assay was performed, and the inhibition curve was fitted with GraphPad Prism (Version 8.0). The inhibition type was confirmed based on the R square of the following four equations and the Dixon and Lineweaver–Burk plots. The inhibition constant (K i) values were determined using the equations for competitive inhibition (Eq. 1), noncompetitive inhibition (Eq. 2), uncompetitive inhibition (Eq. 3), and mixed inhibition (Eq. 4). v=VmaxS/Km(1+I/Ki)+S (1) v=VmaxS/(Km+S)(1+I/Ki) (2) v=VmaxS/S(1+I/Ki)+Km (3) v=VmaxS/Km(1+I/Ki)+S(1+I/αKi) (4)

Where [5] appears, read: gefitinib 10 μM, defluorination, read-out: IC50 toward gefitinib.
Where [6] appears, read: tamoxifen 20 μM, N-demethylation, read-out: IC50 toward tamoxifen.
The mark [7] stands for this setting: ticagrelor 30 μM, dehydroxyethoxylation, read-out: IC50 toward ticagrelor.

In the case of `Cc1ccc(-c2c(-c3nn(C)c4ncnc(N5CC[C@H](N6CCCCC6)C5)c34)cnn2C)cc1` [CYP3cide], in series [1], the “Inhibition of C4-hydroxylation of NEN in human liver microsomes (in words)” value is listed as “strongly inhibited”.

Take `COc1ccc(-c2cc(=O)c3c(O)cc(O)cc3o2)cc1-c1c(O)cc(O)c2c(=O)cc(-c3ccc(O)cc3)oc12` [DGK, bilobetin]: the IC50 is 162 ± 22 nM in series [2], 1720 ± 1 nM in series [3] (setting [5]), 1020 ± 88 nM in series [3] (setting [6]) and 3500 ± 34 nM in series [3] (setting [7]). In series [4], the Type of inhibition entry is reported as “mixed reversible inhibition”. Affinity in series [4] was put at a Ki of 70 ± 18 nM. Further, the “ɑ (degree to which inhibitor binding influences enzyme-substrate binding)” value in series [4] is reported as 2.98.

With `O=c1cc(-c2ccc(O)c(-c3c(O)cc(O)c4c(=O)cc(-c5ccc(O)cc5)oc34)c2)oc2cc(O)cc(O)c12` [AMF, Amentoflavone], the IC50 in series [2] worked out at 186 ± 4 nM; in series [3] (setting [5]), 5200 ± 527 nM; in series [3] (setting [6]) it was 2720 ± 93 nM; in series [3] (setting [7]) it was 2920 ± 47 nM. For the same molecule, the Type of inhibition result in series [4] is reported as “mixed reversible inhibition”. In addition, the Ki in series [4] turned out to be 101 ± 30 nM. Besides, the “ɑ (degree to which inhibitor binding influences enzyme-substrate binding)” value in series [4] is 5.55.

As to `COc1ccc(-c2cc(=O)c3c(O)cc(O)c(-c4cc(-c5cc(=O)c6c(O)cc(O)cc6o5)ccc4OC)c3o2)cc1` [IGK, isoginkgetin], the IC50 in series [2] was determined as 982 ± 6 nM; in series [3] (setting [5]) it was 13100 ± 415 nM; in series [3] (setting [6]), 4660 ± 236 nM; in series [3] (setting [7]), 10200 ± 382 nM. Besides, the Type of inhibition entry in series [4] was “mixed reversible inhibition”. Besides, affinity in series [4] was put at a Ki of 278 ± 87 nM. Besides, in series [4], the “ɑ (degree to which inhibitor binding influences enzyme-substrate binding)” value amounted to 2.79.

For `COc1cc(O)c2c(=O)cc(-c3ccc(OC)c(-c4c(O)cc(O)c5c(=O)cc(-c6ccc(O)cc6)oc45)c3)oc2c1` [GK, ginkgetin], the IC50 in series [2] was 106 ± 4 nM; in series [3] (setting [5]), 869 ± 1 nM; in series [3] (setting [6]), 478 ± 3 nM; in series [3] (setting [7]) it was 1610 ± 39 nM. Moreover, in series [4], the Type of inhibition result is listed as “mixed reversible inhibition”. For the same molecule, the Ki in series [4] amounted to 34 ± 7 nM. In addition, the “ɑ (degree to which inhibitor binding influences enzyme-substrate binding)” value in series [4] came out at 4.56.
